Test results: publication PMC2724842 (Biochemistry, 2009)
“Also recorded” adds a separate entry of the source. Marks after values point to notes of the source that are not given here.

Experiments:
[1] = molecular target: Y169F IPMS (Mycobacterium tuberculosis, UniProt P9WQB3, Y169F); format: biochemical; details: for Km: read-out: K1 (Km)
[2] = molecular target: T1, E218A IPMS (Mycobacterium tuberculosis, UniProt P9WQB3, E218A); format: biochemical
[3] = molecular target: T2, H379A IPMS (Mycobacterium tuberculosis, UniProt P9WQB3, H379A); format: biochemical
[4] = molecular target: T3, Y410F IPMS (Mycobacterium tuberculosis, UniProt P9WQB3, Y410F); format: biochemical; details: for Km: read-out: K1 (Km)
[5] = molecular target: Y169F MtIPMS (Mycobacterium tuberculosis, UniProt P9WQB3, Y169F); format: biochemical
[6] = molecular target: T1, E218A IPMS; format: biochemical; remark: listed apart in the source
[7] = molecular target: T2, H379A IPMS; format: biochemical; remark: listed apart in the source
[8] = molecular target: T3, Y410F IPMS; format: biochemical
[9] = molecular target: T3, Y410F IPMS; format: binding
[10] = molecular target: T1, E218A IPMS; format: binding

CC(=O)SCCNC(=O)CCNC(=O)[C@H](O)C(C)(C)COP(=O)(O)OP(=O)(O)OC[C@H]1O[C@@H](n2cnc3c(N)ncnc32)[C@H](O)[C@@H]1OP(=O)(O)O [Acetyl-CoA, acetyl-coenzyme A]
kcat1 (kcat) [1]: 5.67 ± 0.217 s⁻¹ | Km [1]: 40 ± 6 µM | K1 [2]: 9.5 ± 1.1 µM | K2 [2]: 697 ± 615 µM | kcat1 [2]: 0.0583 ± 0.0033 s⁻¹ | kcat2 [2]: 0.0933 ± 0.0467 s⁻¹ | kcat1 (kcat) [3]: 2.55 ± 0.033 s⁻¹ | Km ([3]; read-out: K1 (Km)): 23 ± 1.5 µM | kcat1 (kcat) [4]: 0.0933 ± 0.0033 s⁻¹ | Km [4]: 1.1 ± 0.2 µM

CC(C)C[C@H](N)C(=O)O [L-leucine]
inhibition at saturating L-leucine [5]: fully inhibited; also recorded: completely inhibited | activity retained, vss data [6]: 16% | β, limiting value for vi [6]: 0.61/0.16 ^c | activity retained at saturating L-leucine [7]: 24% | β (fractional activity at saturating inhibitor) [7]: 0.24 | sensitivity to L-leucine inhibition [8]: insensitive | N (stoichiometry for binding) [9]: 0.91 ± 0.01 | ΔH [9]: 2.598 ± 0.048 kcal/mol | ΔS [9]: 30.1 cal/mol/K | N (stoichiometry for binding) [10]: 0.97 ± 0.01 | ΔH [10]: 1.486 ± 0.031 kcal/mol | ΔS [10]: 28.5 cal/mol/K

CC(C)C(=O)C(=O)O [α-KIV, α-ketoisovalerate]
kcat1 (kcat) [1]: 4.75 ± 0.267 s⁻¹ | Km [1]: 13.4 ± 2.6 µM | K1 [2]: 1.6 ± 0.2 µM | K2 [2]: 39 ± 11 µM | kcat1 [2]: 0.0367 ± 0.0017 s⁻¹ | kcat2 [2]: 0.0217 ± 0.0017 s⁻¹ | K1 [3]: 1.6 ± 1.1 µM | K2 [3]: 19 ± 6 µM | kcat1 [3]: 0.7 ± 0.3 s⁻¹ | kcat2 [3]: 1.48 ± 0.283 s⁻¹ | kcat1 (kcat) [4]: 0.075 ± 0.0033 s⁻¹ | Km [4]: 0.5 ± 0.1 µM
